Measurements from patent publication US20080026986A1, “REVERSAL OF THE SUPPRESSIVE FUNCTION OF SPECIFIC T CELLS VIA TOLL-LIKE RECEPTOR 8 SIGNALING” (priority 2006, published 2008).
“Also recorded” adds a separate entry of the source.

Columns and labels:
[1] = system: PTIL194 and PTIL237; test: Reversal of suppressive function of PTIL194 and PTIL237 by TLR ligands (naïve CD4+ T cell proliferation); type: cell-based, human; conditions: naïve CD4+ T cells:Treg 10:1, OKT3-coated plates, FIG. 5A
Procedure: (§1) (C) Expression of TLR8 mRNA in CD4^+ Treg and CD8^+ Treg cell clones generated from PTIL194 by RT-PCR.
(§2) Naïve CD4^+ T cells were purified from PBMCs by using microbeads (Miltenyi Biotec). Naïve CD4^+ T cells (10^5/well) were cultured with regulatory T cells at a ratio of 10:1 in OKT3 (2 μg/ml)-coated, U bottomed 96-well plates containing the following TLR ligands. […] CpG-A (3 μg/ml), CpG-B (3 μg/ml) and poly-G3 oligonucleotides (3 μg/ml) were synthesized by Integrated DNA Technologies (Coralville, Iowa). All experiments were performed at least more than once.
CD4^+ CD25-T cells (2×10^5) purified from human PBMCs by antibody-coated beads (Dynal, Inc.) were cultured for 60 hours in U-bottomed 96-well plates containing 5×104 CD3-depleted APCs, 0.1 μg/ml anti-CD3 mAb, and different numbers of CD4^+ regulatory or effector T cells. The proliferation of responder T cells was determined by the incorporation of [H^3]thymidine for the last 16 hours of culture, as previously described (Wang et al., 2004; Wang et al., 2005). Cells were harvested and the radioactivity counted in a scintillation counter. All experiments were performed in triplicate. Transwell experiments were performed in 24-well plates with a pore size of 0.4 μm (Coming Costar, Cambridge, Mass.). 2×10^5 the freshly purified naïve CD4^+ T cells were cultured in the outer wells of 24-well plate in medium containing 0.1 μg/ml anti-CD3 antibody and 2×10^5 APCs. Equal numbers of regulatory T cells or nonregulatory T cells were added into the inner wells in the same medium containing 0.5 μg/ml anti-CD3 antibody and 2×10^5 APCs. After 56 hours of culture, the cells in the outer and inner wells were harvested separately and transferred to 96-well plates. [H^3]thymidine was added, and the cells were cultured for an additional 16 hours before harvest for the radioactivity counting with a liquid scintillation counter.
as §2, with “use of” for “using”, “following” for “following TLR”, “poly-G” for “poly-G3”, “Iowa).” for “Iowa). All experiments were performed at least more than once.”

[2] = system: naturally occurring CD4+ CD25+ Treg cells; test: Reversal of suppressive function of naturally occurring CD4+ CD25+ Treg cells; type: cell-based
[3] = system: CD4+ Treg cells; test: Naïve T cell proliferation assay with CD4+ Treg cell populations/clones with or without TLR ligands; type: cell-based, human; conditions: prostate tumor-derived (PTIL194); FIGS. 5A, 5B
Procedure: as §1
(§3) To test this possibility, the suppressive effects of CD4^+ and CD8^+ Treg cells were examined on naïve T cell proliferation in a functional assay, with or without TLR8 ligands (Poly-G2 and ssRNA40) or ligands for other TLRs.
(§4) CD4^+ CD25-T cells (2×10^5) purified from human PBMCs by antibody-coated beads (Dynal, Inc.) were cultured for 60 hours in U-bottomed 96-well plates containing 5×104 CD3-depleted APCs, 0.1 μg/ml anti-CD3 mAb, and different numbers of CD4^+ regulatory or effector T cells. The proliferation of responder T cells was determined by the incorporation of [H^3]thymidine for the last 16 hours of culture, as previously described (Wang et al., 2004; Wang et al., 2005). Cells were harvested and the radioactivity counted in a scintillation counter. All experiments were performed in triplicate. Transwell experiments were performed in 24-well plates with a pore size of 0.4 μm (Coming Costar, Cambridge, Mass.). 2×10^5 the freshly purified naïve CD4^+ T cells were cultured in the outer wells of 24-well plate in medium containing 0.1 μg/ml anti-CD3 antibody and 2×10^5 APCs. […] [H^3]thymidine was added, and the cells were cultured for an additional 16 hours before harvest for the radioactivity counting with a liquid scintillation counter. […]

[4] = system: CD8+ Treg cells; test: Naïve T cell proliferation assay with CD8+ Treg cell populations/clones with or without TLR ligands; type: cell-based, human; conditions: prostate tumor-derived (PTIL194); FIGS. 5A, 5B
Procedure: as §1, §3, §4

[5] = system: BTIL31 γδ1 Treg cells; test: Naïve CD4+ T cell proliferation with supernatants from TLR ligand-treated BTIL31 cells; type: cell-based, human; conditions: FIG. 13A
Procedure: (§5) In addition, naïve CD4^+ T cells were cultured in the presence of supernatants derived from BTIL31 cells pre-treated with or without the indicated TLR ligands. The proliferation of naïve CD4^+ T cells was determined by [^3H]-thymidine incorporation assay described herein. […] CFSE-labeled Naïve CD4^+ T cells cocultured with BTIL31 cells or its clones in the presence or absence of Poly-G3 in OKT3-coated 24-well plates. After 3 days of culture, cells were harvested and analyzed for divisions by FACS gated on the CFSE-labeled cells. CFSE-labeled Naïve CD4^+ T cells alone served as a control. […] BTIL31 cells were cultured in the presence or absence of Poly-G3 for 2 days, and then tested the ability of Poly-G3-treated and untreated BTIL31 cells to kill BC31 autologous tumor cells.
(§6) To test whether the suppressive function of BTIL31 γδ1 Treg cells could be reversed by TLR-8 ligands, cells were treated with a panel of TLR ligands and then test their ability to suppress naïve T cell proliferation. […] After 48 h, CFSE-labeled cells were gated for FACS analysis.

[6] = system: BTIL31 γδ1 Treg cells; test: CFSE-labeled naïve CD4+ T cell division in coculture with BTIL31 cells or clones; type: cell-based, human; conditions: coculture with BTIL31 bulk cells or clones, FACS, FIG. 13B
Procedure: as §5, §6

[7] = system: BTIL31 γδ1 Treg cells; test: Killing of BC31 autologous tumor cells by Poly-G3-treated BTIL31 cells; type: cell-based, human; conditions: BTIL31 cultured with Poly-G3 for 2 days; FIG. 13C
Procedure: (A). Reversal of the suppressive function of γδ 1 T cells by TLR8 ligands, but not by ligands for other TLRs. naïve CD4^+ T cells were cultured with BTIL31 cells at the ratio of 10:1 in the U bottom 96-well plates pre-coated with OKT3 in the presence of different TLR ligands: LPS, CpG-A, CpG-B, Imiquimod-R837, loxoribine, poly (I: C), ssRNA40/LyoVec, RNA33/LyoVec, pam3CSK4, flagellin and Poly-G3. In addition, naïve CD4^+ T cells were cultured in the presence of supernatants derived from BTIL31 cells pre-treated with or without the indicated TLR ligands. The proliferation of naïve CD4^+ T cells was determined by [^3H]-thymidine incorporation assay described herein. Results are one representative data of three independent experiments. (B) Restoration of CFSE-naïve CD4^+ T cell division by Poly-G3 oligonucleotides. CFSE-labeled Naïve CD4^+ T cells cocultured with BTIL31 cells or its clones in the presence or absence of Poly-G3 in OKT3-coated 24-well plates. After 3 days of culture, cells were harvested and analyzed for divisions by FACS gated on the CFSE-labeled cells. CFSE-labeled Naïve CD4^+ T cells alone served as a control. (C) Poly-G treatment had no effect on TRAIL-mediated killing activity. BTIL31 cells were cultured in the presence or absence of Poly-G3 for 2 days, and then tested the ability of Poly-G3-treated and untreated BTIL31 cells to kill BC31 autologous tumor cells. […]

[8] = system: BTIL31 γδ1 Treg cells; test: Naïve CD4+ T cell proliferation ([3H]-thymidine) in coculture with BTIL31 cells plus TLR ligands; type: cell-based, human; conditions: naïve CD4+ T cells:BTIL31 10:1, OKT3-coated plates; FIG. 13A
Procedure: as §5
as §2, with “once. […]” for “once.”

Molecule: C=CCn1c(=O)n([C@@H]2O[C@H](CO)[C@@H](O)[C@H]2O)c2nc(N)[nH]c(=O)c21 [loxoribine]
- Restoration of Treg cell suppressed proliferation of naïve CD4+ T cells [1]: no effect

Molecule: poly(I:C)
- Restoration of Treg cell suppressed proliferation of naïve CD4+ T cells [1]: no effect

Molecule: CC(C)Cn1cnc2c(N)nc3ccccc3c21 [imiquimod, Imiquimod]
- Restoration of Treg cell suppressed proliferation of naïve CD4+ T cells [1]: no effect
- Effect on naturally occurring CD4+ CD25+ Treg cells [2]: little or no effect

Molecule: AAG*GA [Poly-G2]
- Reversal of suppressive function of CD4+ Treg-containing cell populations and Treg cell clones [3]: abolished; also recorded: Reversal of suppressive function
- Reversal of suppressive function of CD8+ Treg-containing cell populations and clones [4]: Reversal of suppressive function
- Restoration of Treg cell suppressed proliferation of naïve CD4+ T cells [1]: Restoration

Molecule: AG*G*GA [Poly-G3]
- Effect of supernatants from ligand-treated γδ1 Treg cells on proliferation of naïve CD4+ T cells [5]: enhanced rather than inhibited
- Restoration of proliferation or division of CFSE-labeled naïve CD4+ T cells [6]: Restoration
- Restoration of proliferation or division of CFSE-labeled naïve CD4+ T cells ([6]; listed as poly-G3): completely restored
- Effect on TRAIL-mediated killing of BC31 tumor cells by BTIL31 cells [7]: no effect
- Reversal of the suppressive function of BTIL31 γδ1 Treg cells (proliferation of naïve CD4+ T cells) [8]: reverse the suppressive function

Molecule: pam3CSK4
- Restoration of Treg cell suppressed proliferation of naïve CD4+ T cells [1]: no effect
